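Method: 48-hour compound exposure of cells in 96-well plates, five concentrations, linear interpolation of endpoints. At the GI50, growth is halved. The concentration for full growth arrest is given as TGI.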

Some test systems named below: CAKI-1 renal; HT29 colon; NCI-H522 lung; PC-3 prostate; SF-539 CNS; SK-MEL-5 melanoma; SNB-75 CNS; SW-620 colon; TK-10 renal; UACC-62 melanoma.
Holding throughout (test): inhibition of tumour cell growth, NCI panel, 48 h

For `CN(C)CCOc1ccccc1NC1=C(Cl)C(=O)C(Nc2ccccc2OCCN(C)C)=C(Cl)C1=O`, the GI50 in the experiment with CAKI-1 renal was 1.14 µM; in the experiment with HT29 colon it was 0.83 µM; in the experiment on NCI-H522 lung it was 0.502 µM; in the experiment with PC-3 prostate it was 9.84 µM; in the experiment on SF-539 CNS it was 16.4 µM; in the experiment on SNB-75 CNS it was above 39.4 µM. Besides, the GI50 is 0.566 µM in the experiment with SW-620 colon, 5.73 µM in the experiment with TK-10 renal and above 34.1 µM with UACC-62 melanoma. In addition, the TGI in the experiment on CAKI-1 renal was 2.36 µM; with HT29 colon, 3.5 µM; with NCI-H522 lung it was 1.14 µM; with PC-3 prostate, above 31.8 µM; in the experiment with SF-539 CNS, above 48.3 µM; in the experiment with SK-MEL-5 melanoma, above 23.8 µM. Further, the TGI with SNB-75 CNS is above 82.1 µM; with SW-620 colon, 1.24 µM; in the experiment on TK-10 renal, 12.4 µM; in the experiment with UACC-62 melanoma it was above 49.3 µM.
For `Oc1ccccc1/C=N\NC(=S)N/N=C/c1ccccc1O`, the GI50 was 0.548 µM in the experiment on CAKI-1 renal; 6.63 µM in the experiment on HT29 colon; 5.76 µM with NCI-H522 lung; 5.99 µM in the experiment on PC-3 prostate; 3.26 µM in the experiment on SF-539 CNS; 1.69 µM with SK-MEL-5 melanoma. Moreover, the GI50 with SNB-75 CNS was 2.24 µM; in the experiment with SW-620 colon, 3.54 µM; with TK-10 renal, 4.62 µM; with UACC-62 melanoma, 1.23 µM. The TGI was 3.94 µM with CAKI-1 renal; 48.8 µM in the experiment on HT29 colon; 36.5 µM in the experiment with NCI-H522 lung; above 100 µM in the experiment on PC-3 prostate; 34.3 µM in the experiment with SF-539 CNS; 8.53 µM in the experiment on SK-MEL-5 melanoma. In addition, the TGI in the experiment on SNB-75 CNS is 38.2 µM; in the experiment with SW-620 colon, above 100 µM; with TK-10 renal, 53.3 µM; with UACC-62 melanoma it was 7.56 µM.
For the compound `COc1ccc(-c2cn(-c3cc(OC)c(OC)c(OC)c3)c(=O)[nH]2)cc1OC`, the GI50 with CAKI-1 renal, in the experiment on HT29 colon, in the experiment with NCI-H522 lung, in the experiment with PC-3 prostate, with SF-539 CNS and with SK-MEL-5 melanoma was above 100 µM throughout. In addition, the GI50 in the experiment with SNB-75 CNS is 71.7 µM; in the experiment with SW-620 colon it was above 100 µM; in the experiment on TK-10 renal, above 100 µM; with UACC-62 melanoma it was above 100 µM. The TGI in the experiment with CAKI-1 renal, in the experiment with HT29 colon, in the experiment on NCI-H522 lung, in the experiment on PC-3 prostate, in the experiment on SF-539 CNS and in the experiment on SK-MEL-5 melanoma was above 100 µM throughout. The TGI in the experiment with SNB-75 CNS, in the experiment on SW-620 colon, with TK-10 renal and in the experiment on UACC-62 melanoma was above 100 µM in each case.
In the case of `CC(=O)OCC1OC(n2ncc(=O)[nH]c2=O)C(OC(C)=O)C1OC(C)=O` (centres undefined), the TGI with CAKI-1 renal, in the experiment with HT29 colon, in the experiment with NCI-H522 lung, in the experiment on PC-3 prostate, with SF-539 CNS and in the experiment with SK-MEL-5 melanoma was above 100 µM each time. For the same compound, the TGI with SNB-75 CNS, with SW-620 colon, in the experiment on TK-10 renal and with UACC-62 melanoma was above 100 µM each time.
Regarding `NC(=O)c1cc(Br)ccc1NC(=O)/C=C/c1ccccc1`, the GI50 with CAKI-1 renal was 6.17 µM; in the experiment on HT29 colon, 0.914 µM; in the experiment on NCI-H522 lung, 0.981 µM; in the experiment on PC-3 prostate it was 1.19 µM; in the experiment with SF-539 CNS, 1.24 µM; in the experiment with SK-MEL-5 melanoma, 0.608 µM. Further, the GI50 in the experiment with SNB-75 CNS was 2.16 µM; in the experiment on SW-620 colon it was 0.986 µM; in the experiment with TK-10 renal, 5.93 µM; in the experiment with UACC-62 melanoma, 1.24 µM. Besides, the TGI was above 100 µM in the experiment on CAKI-1 renal; above 100 µM in the experiment on HT29 colon; 22 µM with NCI-H522 lung; above 100 µM with PC-3 prostate; 8.57 µM in the experiment on SF-539 CNS; above 60.2 µM in the experiment with SK-MEL-5 melanoma. Besides, the TGI was 10.7 µM in the experiment on SNB-75 CNS, above 100 µM in the experiment with SW-620 colon, 39.3 µM in the experiment on TK-10 renal and above 100 µM in the experiment on UACC-62 melanoma.
For the compound `CCNCCNc1cc(-c2ccc(C(F)(F)F)cc2)c(C#N)c2nc3cc(Cl)c(Cl)cc3n12`, the GI50 in the experiment with CAKI-1 renal is 1.45 µM; in the experiment with HT29 colon it was 1.64 µM; in the experiment on NCI-H522 lung, 1.78 µM; with PC-3 prostate it was 1.71 µM; in the experiment on SF-539 CNS, 1.74 µM; with SK-MEL-5 melanoma, 1.67 µM. Besides, the GI50 in the experiment on SNB-75 CNS was 1.38 µM; in the experiment with SW-620 colon it was 0.306 µM; in the experiment with TK-10 renal, 2.38 µM; in the experiment with UACC-62 melanoma it was 1.84 µM. In addition, the TGI in the experiment with CAKI-1 renal came to 2.82 µM; in the experiment on HT29 colon it was 3.08 µM; in the experiment with NCI-H522 lung, 3.37 µM; with PC-3 prostate, 3.4 µM; in the experiment on SF-539 CNS, 3.23 µM; with SK-MEL-5 melanoma, 3.04 µM. For the same compound, the TGI in the experiment with SNB-75 CNS was found to be 2.69 µM; with SW-620 colon, 1.14 µM; with TK-10 renal, 3.87 µM; in the experiment with UACC-62 melanoma, 3.57 µM.
Take `C=C1C(=O)O[C@H]2[C@H]1CC/C(CNC(=O)/C=C/c1ccccc1F)=C\CC[C@@]1(C)O[C@@H]21`: the GI50 was 1.3 µM in the experiment on CAKI-1 renal; 1.22 µM in the experiment with HT29 colon; 0.399 µM in the experiment with NCI-H522 lung; 2 µM with PC-3 prostate; 1.26 µM with SF-539 CNS; 1.78 µM in the experiment with SK-MEL-5 melanoma. For the same compound, the GI50 is 2.18 µM with SNB-75 CNS, 0.487 µM in the experiment on SW-620 colon, 1.66 µM in the experiment with TK-10 renal and 1.47 µM in the experiment with UACC-62 melanoma. Also, the TGI in the experiment with CAKI-1 renal stood at 2.67 µM; in the experiment on HT29 colon it was 3.08 µM; in the experiment on NCI-H522 lung it was 1.64 µM; in the experiment with PC-3 prostate, 4.29 µM; in the experiment with SF-539 CNS, 2.94 µM; in the experiment on SK-MEL-5 melanoma, 3.29 µM. Also, the TGI in the experiment with SNB-75 CNS worked out at 8.29 µM; in the experiment with SW-620 colon, 1.66 µM; in the experiment with TK-10 renal, 3.25 µM; with UACC-62 melanoma, 2.94 µM.
On to `Cn1cc(C2=C(c3cn(CCCCCO)c4ccccc34)C(=O)NC2=O)c2ccccc21`, for which the GI50 with CAKI-1 renal is 6.34 µM; in the experiment on HT29 colon, 3.31 µM; with NCI-H522 lung, 2.27 µM; in the experiment with PC-3 prostate, 6.88 µM; in the experiment on SF-539 CNS, 3.16 µM; with SK-MEL-5 melanoma, 3.29 µM. Further, the GI50 is 1.21 µM with SNB-75 CNS, 3.17 µM with SW-620 colon, 6.11 µM in the experiment on TK-10 renal and 3.99 µM in the experiment with UACC-62 melanoma. Also, the TGI in the experiment on CAKI-1 renal was above 23.3 µM; in the experiment with HT29 colon it was 13.9 µM; in the experiment on NCI-H522 lung, 10.6 µM; with PC-3 prostate, above 24.1 µM; with SF-539 CNS, 8.55 µM; in the experiment on SK-MEL-5 melanoma, 6.82 µM. Besides, the TGI is 8.9 µM with SNB-75 CNS, above 25 µM in the experiment with SW-620 colon, 16 µM with TK-10 renal and 9.17 µM with UACC-62 melanoma.
